From PubChem BioAssay AID1918945 (Molecular Pharmacology Branch, DTP, NCI, 2023)
“And” between values parts separate entries of the source, which are not always exact repeats. Equal entries are not always repeated. One block for each compound: values may come before it.

System: 883617-216-R-J1-PDC complex spheroid viability
Assay: Anticancer human tumor 883617-216-R-J1-PDC patient-derived bladder carcinoma cell line growth inhibition
Conditions: for viability, T/C: stronger effect = lower value
Outline: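 Complex spheroids of tumor cells with HUVEC and human MSCs, exposed to iadademstat combined with other agents. Each agent tested in half-log steps from near clinical Cmax (else 10 microM top), DMSO ≤0.25%.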

[1] = curve of first compound, second compound 0.1 µM
[2] = curve of first compound, second compound 0.316 µM
[3] = curve of first compound, second compound 1 µM
[4] = curve of first compound, second compound 3.16 µM
[5] = curve of first compound, second compound 10 µM
[6] = second compound 0.1 µM, first compound 0.00949 µM
[7] = second compound 0.1 µM, first compound 0.03 µM
[8] = second compound 0.1 µM, first compound 0.0949 µM
[9] = second compound 0.1 µM, first compound 0.3 µM
[10] = second compound 0.316 µM, first compound 0.00949 µM
[11] = second compound 0.316 µM, first compound 0.03 µM
[12] = second compound 0.316 µM, first compound 0.0949 µM
[13] = second compound 0.316 µM, first compound 0.3 µM
[14] = second compound 1 µM, first compound 0.00949 µM
[15] = second compound 1 µM, first compound 0.03 µM
[16] = second compound 1 µM, first compound 0.0949 µM
[17] = second compound 1 µM, first compound 0.3 µM
[18] = second compound 3.16 µM, first compound 0.00949 µM
[19] = second compound 3.16 µM, first compound 0.03 µM
[20] = second compound 3.16 µM, first compound 0.0949 µM
[21] = second compound 3.16 µM, first compound 0.3 µM
[22] = second compound 10 µM, first compound 0.00949 µM
[23] = second compound 10 µM, first compound 0.03 µM
[24] = second compound 10 µM, first compound 0.0949 µM
[25] = second compound 10 µM, first compound 0.3 µM
[26] = second compound 0.1 µM, first compound 0.000949 µM
[27] = second compound 0.1 µM, first compound 0.003 µM
[28] = second compound 0.316 µM, first compound 0.000949 µM
[29] = second compound 0.316 µM, first compound 0.003 µM
[30] = second compound 1 µM, first compound 0.000949 µM
[31] = second compound 1 µM, first compound 0.003 µM
[32] = second compound 3.16 µM, first compound 0.000949 µM
[33] = second compound 3.16 µM, first compound 0.003 µM
[34] = second compound 10 µM, first compound 0.000949 µM
[35] = second compound 10 µM, first compound 0.003 µM
[36] = second compound 0.1 µM, first compound 0.000316 µM
[37] = second compound 0.1 µM, first compound 0.001 µM
[38] = second compound 0.1 µM, first compound 0.00316 µM
[39] = second compound 0.1 µM, first compound 0.01 µM
[40] = second compound 0.1 µM, first compound 0.0316 µM
[41] = second compound 0.1 µM, first compound 0.1 µM
[42] = second compound 0.316 µM, first compound 0.000316 µM
[43] = second compound 0.316 µM, first compound 0.001 µM
[44] = second compound 0.316 µM, first compound 0.00316 µM
[45] = second compound 0.316 µM, first compound 0.01 µM
[46] = second compound 0.316 µM, first compound 0.0316 µM
[47] = second compound 0.316 µM, first compound 0.1 µM
[48] = second compound 1 µM, first compound 0.000316 µM
[49] = second compound 1 µM, first compound 0.001 µM
[50] = second compound 1 µM, first compound 0.00316 µM
[51] = second compound 1 µM, first compound 0.01 µM
[52] = second compound 1 µM, first compound 0.0316 µM
[53] = second compound 1 µM, first compound 0.1 µM
[54] = second compound 3.16 µM, first compound 0.000316 µM
[55] = second compound 3.16 µM, first compound 0.001 µM
[56] = second compound 3.16 µM, first compound 0.00316 µM
[57] = second compound 3.16 µM, first compound 0.01 µM
[58] = second compound 3.16 µM, first compound 0.0316 µM
[59] = second compound 3.16 µM, first compound 0.1 µM
[60] = second compound 10 µM, first compound 0.000316 µM
[61] = second compound 10 µM, first compound 0.001 µM
[62] = second compound 10 µM, first compound 0.00316 µM
[63] = second compound 10 µM, first compound 0.01 µM
[64] = second compound 10 µM, first compound 0.0316 µM
[65] = second compound 10 µM, first compound 0.1 µM
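Note: exposure lasted seven days after three days of spheroid growth.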
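Throughout, for viability, T/C: 100% = DMSO vehicle control luminescence.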

SMILES: COc1cc(C2c3cc4c(cc3C(OC3OC5COC(C)OC5C(O)C3O)C3COC(=O)C23)OCO4)cc(OC)c1O (stereo not given) + NC1CCC(NC2CC2c2ccccc2)CC1
IC50 [1]: 377 nM
IC50 [2]: 645 nM
IC50 [3]: 830 nM
IC50 [4]: 587 nM
IC50 [5]: 1750 nM
viability, T/C [6]: 96.9%
viability, T/C [7]: 94.1%
viability, T/C [8]: 72.5%
viability, T/C [9]: 51.6%
viability, T/C (second compound 0.1 µM, first compound 0.949 µM): 45.8%
viability, T/C (second compound 0.1 µM, first compound 3 µM): 38.3%
viability, T/C [10]: 101%
viability, T/C [11]: 94%
viability, T/C [12]: 80.1%
viability, T/C [13]: 51.4%
viability, T/C (second compound 0.316 µM, first compound 0.949 µM): 54%
viability, T/C (second compound 0.316 µM, first compound 3 µM): 43.4%
viability, T/C [14]: 104%
viability, T/C [15]: 83%
viability, T/C [16]: 67.3%
viability, T/C [17]: 56.2%
viability, T/C (second compound 1 µM, first compound 0.949 µM): 49.2%
viability, T/C (second compound 1 µM, first compound 3 µM): 44.6%
viability, T/C [18]: 106%
viability, T/C [19]: 95.5%
viability, T/C [20]: 70.9%
viability, T/C [21]: 53.2%
viability, T/C (second compound 3.16 µM, first compound 0.949 µM): 51.8%
viability, T/C (second compound 3.16 µM, first compound 3 µM): 41.8%
viability, T/C [22]: 122%
viability, T/C [23]: 99.8%
viability, T/C [24]: 75.4%
viability, T/C [25]: 60.2%
viability, T/C (second compound 10 µM, first compound 0.949 µM): 56.4%
viability, T/C (second compound 10 µM, first compound 3 µM): 45.6%

SMILES: Cn1ncnc1C1c2n[nH]c(=O)c3cc(F)cc(c23)NC1c1ccc(F)cc1 (stereo not given)
viability, T/C (compound 0.000316 µM): 104% and 89.5%
viability, T/C (compound 0.001 µM): 104% and 89.1%
viability, T/C (compound 0.00316 µM): 105% and 70.6%
viability, T/C (compound 0.01 µM): 75.7% and 48.9%
viability, T/C (compound 0.0316 µM): 64.4% and 38.5%
viability, T/C (compound 0.1 µM): 54.2% and 38%

IC50 (curve of compound): 395 nM and 204 nM
SMILES: NS(=O)(=O)OCC1CC(n2ccc3c(NC4CCc5ccccc54)ncnc32)CC1O (stereo not given)
viability, T/C (compound 0.00949 µM): 105% and 114%
viability, T/C (compound 0.03 µM): 120% and 108%
viability, T/C (compound 0.0949 µM): 103% and 94.9%
viability, T/C (compound 0.3 µM): 59.1% and 27.2%
viability, T/C (compound 0.949 µM): 21.5% and 8.78%
viability, T/C (compound 3 µM): 14% and 6.66%

SMILES: Nc1ccn(C2OC(CO)C(O)C2(F)F)c(=O)n1 (stereo not given) + NC1CCC(NC2CC2c2ccccc2)CC1
IC50 [1]: < 0.949 nM
IC50 [2]: < 0.949 nM
IC50 [3]: < 0.949 nM
IC50 [4]: < 0.949 nM
IC50 [5]: < 0.949 nM
viability, T/C [26]: 28.7%
viability, T/C [27]: 20.4%
viability, T/C [6]: 24.2%
viability, T/C [7]: 26.4%
viability, T/C [8]: 25.9%
viability, T/C [9]: 18.2%
viability, T/C [28]: 24.9%
viability, T/C [29]: 17.3%
viability, T/C [10]: 23.6%
viability, T/C [11]: 22.4%
viability, T/C [12]: 23.4%
viability, T/C [13]: 23.6%
viability, T/C [30]: 28.2%
viability, T/C [31]: 19.7%
viability, T/C [14]: 24.1%
viability, T/C [15]: 22.6%
viability, T/C [16]: 22%
viability, T/C [17]: 21.7%
viability, T/C [32]: 24.7%
viability, T/C [33]: 21.7%
viability, T/C [18]: 22.3%
viability, T/C [19]: 21.6%
viability, T/C [20]: 22.7%
viability, T/C [21]: 19.2%
viability, T/C [34]: 30.5%
viability, T/C [35]: 20.6%
viability, T/C [22]: 26.9%
viability, T/C [23]: 23.6%
viability, T/C [24]: 23%
viability, T/C [25]: 19.2%

SMILES: Cn1ncnc1C1c2n[nH]c(=O)c3cc(F)cc(c23)NC1c1ccc(F)cc1 (stereo not given) + NC1CC1c1ccc(-c2cccc(O)c2)cc1
IC50 [1]: 15.1 nM
IC50 [2]: 16.2 nM
IC50 [3]: 12.4 nM
IC50 [4]: 8.5 nM
IC50 [5]: 6.41 nM
viability, T/C [36]: 105%
viability, T/C [37]: 95.4%
viability, T/C [38]: 76.4%
viability, T/C [39]: 53%
viability, T/C [40]: 44.1%
viability, T/C [41]: 37.8%
viability, T/C [42]: 116%
viability, T/C [43]: 103%
viability, T/C [44]: 73%
viability, T/C [45]: 54.3%
viability, T/C [46]: 47.1%
viability, T/C [47]: 40.8%
viability, T/C [48]: 118%
viability, T/C [49]: 88.9%
viability, T/C [50]: 68.6%
viability, T/C [51]: 50.2%
viability, T/C [52]: 43%
viability, T/C [53]: 37.8%
viability, T/C [54]: 92.4%
viability, T/C [55]: 93%
viability, T/C [56]: 62.6%
viability, T/C [57]: 50.4%
viability, T/C [58]: 42.2%
viability, T/C [59]: 33.9%
viability, T/C [60]: 83.5%
viability, T/C [61]: 64.2%
viability, T/C [62]: 58.1%
viability, T/C [63]: 44.9%
viability, T/C [64]: 40.9%
viability, T/C [65]: 32.3%

IC50 (curve of compound): < 0.949 nM
SMILES: Nc1ccn(C2OC(CO)C(O)C2(F)F)c(=O)n1 (stereo not given)
viability, T/C (compound 0.000949 µM): 24.4% and 23%
viability, T/C (compound 0.003 µM): 20.5% and 20.8%
viability, T/C (compound 0.00949 µM): 21.2% and 23%
viability, T/C (compound 0.03 µM): 23.5% and 25.3%
viability, T/C (compound 0.0949 µM): 23.3% and 24.1%
viability, T/C (compound 0.3 µM): 21.9% and 23.4%

SMILES: Nc1ncn(C2CC(O)C(CO)S2)c(=O)n1 (stereo not given) + NC1CC1c1ccc(-c2cccc(O)c2)cc1
IC50 [1]: 27.6 nM
IC50 [2]: 40.7 nM
IC50 [3]: 33.9 nM
IC50 [4]: 24.5 nM
IC50 [5]: 18.5 nM
viability, T/C [26]: 115%
viability, T/C [27]: 97.1%
viability, T/C [6]: 67.2%
viability, T/C [7]: 49.5%
viability, T/C [8]: 37.6%
viability, T/C [9]: 29.5%
viability, T/C [28]: 119%
viability, T/C [29]: 89.5%
viability, T/C [10]: 77.9%
viability, T/C [11]: 51.3%
viability, T/C [12]: 38.1%
viability, T/C [13]: 30.5%
viability, T/C [30]: 106%
viability, T/C [31]: 101%
viability, T/C [14]: 64%
viability, T/C [15]: 57.5%
viability, T/C [16]: 36%
viability, T/C [17]: 29.4%
viability, T/C [32]: 92.8%
viability, T/C [33]: 95.8%
viability, T/C [18]: 64.2%
viability, T/C [19]: 47.1%
viability, T/C [20]: 38.7%
viability, T/C [21]: 26.3%
viability, T/C [34]: 78.4%
viability, T/C [35]: 76.7%
viability, T/C [22]: 56.7%
viability, T/C [23]: 45%
viability, T/C [24]: 36.6%
viability, T/C [25]: 33.1%

SMILES: CC(C)CC(NC(=O)C(Cc1ccccc1)NC(=O)c1cnccn1)B(O)O (stereo not given) + NC1CCC(NC2CC2c2ccccc2)CC1
IC50 [1]: 1.85 nM
IC50 [2]: 1.79 nM
IC50 [3]: 1.59 nM
IC50 [4]: 1.62 nM
IC50 [5]: 1.76 nM
viability, T/C [36]: 105%
viability, T/C [37]: 92.2%
viability, T/C [38]: 13.2%
viability, T/C [39]: 3.29%
viability, T/C [40]: 2.15%
viability, T/C [41]: 0.25%
viability, T/C [42]: 112%
viability, T/C [43]: 91.8%
viability, T/C [44]: 8.98%
viability, T/C [45]: 1.9%
viability, T/C [46]: 0.32%
viability, T/C [47]: 0.82%
viability, T/C [48]: 108%
viability, T/C [49]: 74.6%
viability, T/C [50]: 13.2%
viability, T/C [51]: 1.21%
viability, T/C [52]: 0.94%
viability, T/C [53]: 0.72%
viability, T/C [54]: 112%
viability, T/C [55]: 79.6%
viability, T/C [56]: 9.32%
viability, T/C [57]: 1.86%
viability, T/C [58]: 1.46%
viability, T/C [59]: 0.83%
viability, T/C [60]: 101%
viability, T/C [61]: 92.5%
viability, T/C [62]: 6.31%
viability, T/C [63]: 0.91%
viability, T/C [64]: 0.79%
viability, T/C [65]: 0.32%
